The target in series [1] is T1, AAH1 (toxoplasmic aromatic amino acid hydroxylase 1), catalytic domain (Toxoplasma gondii, UniProt S8G872).
T1 construct: catalytic domain, pET-45b (His-tag), expressed in E. coli BL21 GOLD (DE3) pLysS, cobalt resin
T1 sequence (S8G872 1-390 limits assumed): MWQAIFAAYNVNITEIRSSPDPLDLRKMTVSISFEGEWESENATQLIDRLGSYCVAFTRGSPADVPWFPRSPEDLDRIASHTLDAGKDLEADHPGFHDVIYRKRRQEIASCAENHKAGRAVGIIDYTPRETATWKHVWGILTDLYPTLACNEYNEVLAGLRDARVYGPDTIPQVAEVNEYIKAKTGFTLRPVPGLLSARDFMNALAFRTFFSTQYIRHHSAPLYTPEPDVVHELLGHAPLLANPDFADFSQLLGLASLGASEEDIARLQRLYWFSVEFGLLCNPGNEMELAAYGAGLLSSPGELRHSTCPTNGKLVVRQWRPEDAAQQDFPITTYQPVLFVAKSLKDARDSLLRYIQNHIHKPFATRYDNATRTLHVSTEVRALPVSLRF
Kind of series: DARTS (Pronase protection, Western blot). Format: binding. The note with it: 10 µM compound, and dose-dependent; room temperature.

Series [2] has as its target T1, AAH1 (toxoplasmic aromatic amino acid hydroxylase 1), catalytic domain. Kind of series: coupled NADH oxidation assay (dihydropteridine reductase), […] nm; fit to competitive inhibition equation. Type of series: biochemical. Conditions: read-out: KI ^c.
Series [3] addresses T2, AAH2 (toxoplasmic aromatic amino acid hydroxylase 2), catalytic domain (Toxoplasma gondii, UniProt S8FBW5).
T2 construct: catalytic domain, pET-45b (His-tag), expressed in E. coli BL21 GOLD (DE3) pLysS, cobalt resin
T2 sequence (S8FBW5 156-565): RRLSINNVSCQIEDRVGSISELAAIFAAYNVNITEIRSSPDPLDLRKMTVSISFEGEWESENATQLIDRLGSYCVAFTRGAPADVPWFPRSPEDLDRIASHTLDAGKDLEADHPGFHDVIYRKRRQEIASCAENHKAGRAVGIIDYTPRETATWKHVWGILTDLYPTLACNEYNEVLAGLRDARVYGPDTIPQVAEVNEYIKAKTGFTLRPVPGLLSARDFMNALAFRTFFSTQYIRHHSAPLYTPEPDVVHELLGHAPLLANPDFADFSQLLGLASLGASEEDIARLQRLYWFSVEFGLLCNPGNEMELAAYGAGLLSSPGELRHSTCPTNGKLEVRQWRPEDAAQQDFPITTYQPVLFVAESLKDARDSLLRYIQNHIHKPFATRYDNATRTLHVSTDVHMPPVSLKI
The series is described as above. Type of series: biochemical. Conditions: read-out: KI ^c.

Substrate in the series “purified protein”: N[C@@H](Cc1ccc(O)cc1)C(=O)O
Kind of series: purified protein. Type of series: biochemical, Toxoplasma gondii. The note with it: no inhibitor, 500 µM (6R)-BH4, 500 µM NADH, 10 µM ferrous ammonium sulfate, pH 7.5, 32 °C.

These results are taken from paper PMC8955734, “4-Arylthiosemicarbazide Derivatives as Toxoplasmic Aromatic Amino Acid Hydroxylase Inhibitors and Anti-inflammatory Agents” (International Journal of Molecular Sciences, 2022).

The term Ki denotes a measure of affinity in units of concentration, obtained from inhibition or displacement. With `Cc1nc[nH]c1C(=O)NNC(=S)Nc1ccc([N+](=O)[O-])cc1` [2a], in series [1], the “DARTS (Pronase protection, Western blot)” value was “Proteolysis of AAH1 by Pronase was clearly inhibited by the presence of 2a and 6a”. Also, the Ki in series [2] came out at 1490 nM; in series [3], 3.69 µM.
Regarding `Cc1nc[nH]c1C(=O)NNC(=S)Nc1cccc(I)c1` [6a], the “DARTS (Pronase protection, Western blot)” value in series [1] is “Proteolysis of AAH1 by Pronase was clearly inhibited by the presence of 2a and 6a”. Besides, the Ki worked out at 1260 nM in series [2] and 3.23 µM in series [3].

B1: AAH2 (toxoplasmic aromatic amino acid hydroxylase 2), catalytic domain (Toxoplasma gondii ME49) (protein)
chain: RRLSINNVSCQIEDRVGSISELAAIFAAYNVNITEIRSSPDPLDLRKMTVSISFEGEWESENATQLIDRLGSYCVAFTRGAPADVPWFPRSPEDLDRIASHTLDAGKDLEADHPGFHDVIYRKRRQEIASCAENHKAGRAVGIIDYTPRETATWKHVWGILTDLYPTLACNEYNEVLAGLRDARVYGPDTIPQVAEVNEYIKAKTGFTLRPVPGLLSARDFMNALAFRTFFSTQYIRHHSAPLYTPEPDVVHELLGHAPLLANPDFADFSQLLGLASLGASEEDIARLQRLYWFSVEFGLLCNPGNEMELAAYGAGLLSSPGELRHSTCPTNGKLEVRQWRPEDAAQQDFPITTYQPVLFVAESLKDARDSLLRYIQNHIHKPFATRYDNATRTLHVSTDVHMPPVSLKI
notes: catalytic domain, pET-45b (His-tag), expressed in E. coli BL21 GOLD (DE3) pLysS, cobalt resin
The Km is the substrate concentration at which the rate is half of its maximum. As for B1, the Michaelis constant (Km) in “purified protein” was determined as 0.071 mM.

B2: AAH1 (toxoplasmic aromatic amino acid hydroxylase 1), catalytic domain (Toxoplasma gondii ME49) (protein)
chain: MWQAIFAAYNVNITEIRSSPDPLDLRKMTVSISFEGEWESENATQLIDRLGSYCVAFTRGSPADVPWFPRSPEDLDRIASHTLDAGKDLEADHPGFHDVIYRKRRQEIASCAENHKAGRAVGIIDYTPRETATWKHVWGILTDLYPTLACNEYNEVLAGLRDARVYGPDTIPQVAEVNEYIKAKTGFTLRPVPGLLSARDFMNALAFRTFFSTQYIRHHSAPLYTPEPDVVHELLGHAPLLANPDFADFSQLLGLASLGASEEDIARLQRLYWFSVEFGLLCNPGNEMELAAYGAGLLSSPGELRHSTCPTNGKLVVRQWRPEDAAQQDFPITTYQPVLFVAKSLKDARDSLLRYIQNHIHKPFATRYDNATRTLHVSTEVRALPVSLRF
notes: as for B1
As to B2, the Km in the series “purified protein” was 0.030 mM.
